{"source": "patent US20080193566A1", "about": "“Use of high dose concentrations of gaseous nitric oxide” (priority 2007, published 2008)", "key": {"[1]": {"assay": "Viability after 25,000 ppm gNO (Example 5), NHLF", "assay_type": "cell-based", "details": "human, normal human lung fibroblast cells (NHLF)", "description": "(§1) The purpose of this example is to illustrate the effects on normal human cell lines compared to the effects on cancerous cell lines of high-dosage gNO.\n(§2) The above study was repeated. In addition to the A549, NCI-H23, NCI-H460, HTB-58, H2170 and H441 cells, four other cell lines were added—normal human bronchial epithelial cells (NHBE), normal human endothelial lung vascular cells (NHVE), normal human fibroblast cells (NHLF), and a squamous lung cancer cell line (H2170).\n(§3) FIG. 8, embodiments A, B, C, and D, illustrate the viability of thee three normal human cell lines and one cancerous cell line to which 25,000 ppm gNO is administered for up to 15 minutes. The NHBE cells (embodiment A), experienced a decrease in viability after only 6 minutes of 25,000 ppm gNO administration, resulting in a viability of less than 10%. The NHVE cells (embodiment B) experienced a decrease in viability after only 6 minutes of 25,000 ppm gNO administration, resulting in a viability of less than 10%. The NHLF cells (embodiment C) also experienced a decrease in viability after only 6 minutes of 25,000 ppm gNO administration, resulting in a viability of about 30%. The H2170 cancerous cells experienced a dramatic decrease in viability after only 6 minutes of 25,000 ppm gNO administration, resulting in a viability of less than 10%."}, "[2]": {"test_system": "non-small cell lung cancer (NSCLC) cells lines", "assay": "MTS cell proliferation assay, 25,000 ppm gNO (Example 4), NSCLC cell line panel", "assay_type": "cell-based, human", "details": "between 6 and 9 minutes, all five cancer cell lines", "description": "The purpose of this example is to illustrate the tumorcidal activity of high-dosage gNO. We examined the cellular sensitivity to 25,000 ppm of gNO on 5 non-small cell lung cancer (NSCLC) cells lines by an MTS cell proliferation assay.\nHuman lung cancer cell lines A549, NCI-H23, NCI-H460, HTB-58, H2170, and H441 (commercially available from American Type Culture Collection (“ATCC”), Manassas, Va.) were maintained in culture medium recommended by ATCC. All media were supplemented with 1% penicillin/streptomycin and 10% fetal bovine serum (commercially available from Invitrogen Gibco-BRL, Burlington, Ontario, Canada). […]\nAfter 24 hours, the A549, NCI-H23, NCI-H460, HTB-58, H2170 and H441 cells were treated with 25,000 ppm gNO or air (control) for 1 minute, 3 minutes, 6 minutes, 9 minutes, 10 minutes, 20 minutes, and 30 minutes. Immediately following treatment, the viability of the cells was determined using a colorimetric MTS (3-(4,5-dimethylthiazol-2-yl)-5-(3-carboxymethoxyphenyl)-2-(4-sulfophenyl)-2H-tetrazolium, inner salt) cell proliferation assay (commercially available as the CellTiter 96® Aqueous One Solution Cell Proliferation Assay (MTS) from Promega, Madison, Wis., USA) according to the manufacturer's protocol. […] Absorbance was measured at 490 nm for each well using a micro-plate reader (commercially available from Dynex Technologies, Chantilly, Va., USA). […]"}, "cancer cell lines": {"test_system": "cancer cell lines", "assay": "Viability after 25,000 ppm gNO (Example 5, repeat), cancer cell line panel", "assay_type": "cell-based, human", "details": "between about 6 and about 9 minutes, all five cancer cell lines, repeat study", "description": "as §1, §2"}, "[3]": {"test_system": "H460-epithelial metastatic; large cell lung cancer cells", "assay": "MTS proliferation assay, H460 cells exposed to 350 ppm gNO (Example 1)", "assay_type": "cell-based, human", "details": "350 ppm NO, 2 hours, RPMI medium", "description": "The purpose of this example is to illustrate the effect of continuous gaseous nitric oxide (gNO) 200 ppm and 350 ppm compared to air (control) on the survival of a representative line of cancer cells. […] […] The plates then were removed and cell viability assessed by an MTS proliferation assay.\n(§4) When exposed to 350 ppm of gNO, however, cancer cell survival rates decrease dramatically."}, "[4]": {"test_system": "A549-epithelial lung carcinoma cells", "assay": "MTS proliferation assay, A549 cells exposed to 200 or 350 ppm gNO (Example 1)", "assay_type": "cell-based, human", "design": "MTS assay reading, Average / MTS assay reading, Corrected Average: unit not given here", "details": "for MTS assay reading, Corrected Average: blank subtracted; for Survival: vs air control", "description": "The purpose of this example is to illustrate the effect of continuous gaseous nitric oxide (gNO) 200 ppm and 350 ppm compared to air (control) on the survival of a representative line of cancer cells. Cancer cell lines (A549-epithelial lung carcinoma cells and H460-epithelial metastatic; large cell lung cancer cells) were prepared in F12 medium and suspended in six 96-well plates (3 treatment and 3 controls). […] The plates then were removed and cell viability assessed by an MTS proliferation assay.\nas §4"}, "[5]": {"assay": "Viability after 25,000 ppm gNO (Example 5), NHBE", "assay_type": "cell-based", "details": "human, normal human bronchial epithelial cells (NHBE)", "description": "as §1, §2, §3"}, "Staphylococcus aureus": {"test_system": "Staphylococcus aureus", "assay": "S. aureus on blood agar plates exposed to 25,000 ppm gNO (Example 2)", "assay_type": "cell-based", "description": "The purpose of this example is to observe the possibility of a novel bactericidal high dose (25,000 ppm) effect of gaseous nitric oxide (gNO) on an ATCC strain of Staphylococcous aureus plated on a blood agar media and determine a time effect of this dosage.\nA closed environment treatment chamber was used (see, “A direct nitric oxide gas delivery system for bacterial and mammalian cell cultures,” A. Ghaffari, D. H. Neil, A. Ardakani, J. Road, A. Ghahary, C. C. Miller. Nitric Oxide 12(3):129-140, 2005, herein incorporated by reference in its entirety). The following steps were performed: • 1. Calibrated the AeroNOx analyzer as per standard procedure. • 2. Calibrated the closed environment treatment chamber as per standard procedure. • 3. In a 50 mL tube, known Staphylococcus aureus bacteria in 10 mL Nutrient Broth was grown overnight or for about 12 hours in a shaker incubator. • 4. Measured optical density of grown Staphylococcus aureus using a spectrophotometer set at 600 nm. Used original nutrient broth as a blank. O.D. should be 1.0±10%. • 5. Turned on closed environment treatment chamber. • 6. Labeled three plates: Air, NO+1 minute, NO+3 minutes. • 7. Immersed a sterile cotton swab into the bacterial mixture in the 50 mL tube and shaked off excess liquid. • 8. Swiped one plate entirely in two directions with the swab. • 9. […] After incubation, recorded results with digital pictures. • 14. […]"}, "[6]": {"assay": "Viability after 25,000 ppm gNO (Example 5), NHVE", "assay_type": "cell-based", "details": "human, normal human endothelial lung vascular cells (NHVE)", "description": "as §1, §2, §3"}, "[7]": {"details": "200 ppm NO, 1 hour, HBSS medium"}, "[8]": {"details": "200 ppm NO, 2.5 hours, F12 medium"}, "[9]": {"details": "200 ppm NO, 2.5 hours, HBSS medium"}, "[10]": {"details": "200 ppm NO, 3.5 hours, F12 medium"}, "[11]": {"details": "200 ppm NO, 3.5 hours, HBSS medium"}, "[12]": {"details": "350 ppm NO, 2 hours, F12 medium"}}, "data": [{"smiles": "[N]=O", "note": "[gNO, nitric oxide]", "values": [{"measurement": "viability at 6 min, 25000 ppm", "setting": "[1]; 6 minutes", "value": "~30", "unit": "%"}, {"measurement": "viability at 15 min, 25000 ppm", "setting": "[1]; after 15 minutes of exposure", "value": 30, "unit": "%"}, {"measurement": "cells killed", "setting": "[2]", "value": "75-95%"}, {"measurement": "cells killed", "setting": "cancer cell lines", "value": "75-95%"}, {"measurement": "MTS assay reading, Average", "setting": "[3]", "value": 0.158}, {"measurement": "MTS assay reading, Corrected Average", "setting": "[3]; blank subtracted", "value": 0.037}, {"measurement": "MTS assay reading, Average", "setting": "[4]; 200 ppm NO, 1 hour, F12 medium", "value": 0.852}, {"measurement": "MTS assay reading, Corrected Average", "setting": "[4]; 200 ppm NO, 1 hour, F12 medium", "value": 0.621}, {"measurement": "Survival", "setting": "[4]; 200 ppm NO, 1 hour, F12 medium", "value": "about 92%"}, {"measurement": "MTS assay reading, Average", "setting": "[4]; [7]", "value": 0.06}, {"measurement": "MTS assay reading, Corrected Average", "setting": "[4]; [7]", "value": 0}, {"measurement": "MTS assay reading, Average", "setting": "[4]; [8]", "value": 1.276}, {"measurement": "MTS assay reading, Corrected Average", "setting": "[4]; [8]", "value": 0.918}, {"measurement": "Survival", "setting": "[4]; [8]", "value": "about 90%"}, {"measurement": "MTS assay reading, Average", "setting": "[4]; [9]", "value": 0.06}, {"measurement": "MTS assay reading, Corrected Average", "setting": "[4]; [9]", "value": 0}, {"measurement": "MTS assay reading, Average", "setting": "[4]; [10]", "value": 1.529}, {"measurement": "MTS assay reading, Corrected Average", "setting": "[4]; [10]", "value": 1.059}, {"measurement": "Survival", "setting": "[4]; [10]", "value": "about 87%"}, {"measurement": "MTS assay reading, Average", "setting": "[4]; [11]", "value": 0.061}, {"measurement": "MTS assay reading, Corrected Average", "setting": "[4]; [11]", "value": 0}, {"measurement": "MTS assay reading, Average", "setting": "[4]; [12]", "value": 0.110}, {"measurement": "MTS assay reading, Corrected Average", "setting": "[4]; [12]", "value": 0.009}, {"measurement": "viability at 6 min, 25000 ppm", "setting": "[5]", "value": "< 10", "unit": "%"}, {"measurement": "plate appearance after incubation (FIG. 4)", "setting": "Staphylococcus aureus; 1 minute of exposure", "value": "still shows signs of the S. aureus"}, {"measurement": "plate appearance after incubation (FIG. 5)", "setting": "Staphylococcus aureus; 3 minutes of exposure", "value": "no signs of the S. aureus"}, {"measurement": "viability at 6 min, 25000 ppm", "setting": "[6]", "value": "< 10", "unit": "%"}]}]}
